Laboratory results reported in patent publication US8808743B2, “Benzonatate compositions and methods of use” (priority 2010, dated 2014).

Assay: Simulated gastrointestinal dissolution testing (FloVitro apparatus, USP simulated gastric and intestinal fluids)
Assay type: physicochemical
Settings: 100 mg dose
Method: The dissolution test used procedures devised by DOW Chemical using their proprietary FloVitro™ dissolution apparatus described in U.S. Pat. No. 6,799,123B2 and in the publication titled “FloVitro™ Technology” published online at:
The system used two different media that were combined during the process. The fluid flow rates were:
Simulated gastric fluid=7.7 ml/min
Simulated intestinal fluid=13.1 ml/mi
Total flow through analyzer=20.8 ml/min
To Cell 1: USP simulated gastric fluid (no pepsin)
To Cell 2: USP simulated intestinal fluid (pH 6.8) (SIF)
The samples tested were: • a) 100 mg dose neat benzonatate • b) 220.48 mg of IRP69H resinate: 87.97 mg benzonatate dose • c) 225.15 mg of IRP64H resinate: 102.21 mg benzonatate dose a) 100 mg Neat Benzonatate

- Concentration of Homolog in Effluent Total (0 min): 0.00 mg/L
- Concentration of Homolog in Effluent n = 3 (0 min): 0.00 mg/L
- Concentration of Homolog in Effluent n = 4 (0 min): 0.00 mg/L
- Concentration of Homolog in Effluent n = 5 (0 min): 0.00 mg/L
- Concentration of Homolog in Effluent n = 6 (0 min): 0.00 mg/L
- Concentration of Homolog in Effluent n = 7 (0 min): 0.00 mg/L
- Concentration of Homolog in Effluent n = 8 (0 min): 0.00 mg/L
- Concentration of Homolog in Effluent n = 9 (0 min): 0.00 mg/L
- Concentration of Homolog in Effluent n = 10 (0 min): 0.00 mg/L
- Concentration of Homolog in Effluent n = 11 (0 min): 0.00 mg/L
- Concentration of Homolog in Effluent n = 12 (0 min): 0.00 mg/L
- Concentration of Homolog in Effluent n = 13 (0 min): 0.00 mg/L
- Concentration of Homolog in Effluent n = 14 (0 min): 0.00 mg/L
- Concentration of Homolog in Effluent n = 15 (0 min): 0.00 mg/L
- Concentration of Homolog in Effluent n = 16 (0 min): 0.00 mg/L
- Concentration of Homolog in Effluent n = 17 (0 min): 0.00 mg/L
- Concentration of Homolog in Effluent Total (10 min): 13.84 mg/L
- Concentration of Homolog in Effluent n = 3 (10 min): 0.04 mg/L
- Concentration of Homolog in Effluent n = 4 (10 min): 0.14 mg/L
- Concentration of Homolog in Effluent n = 5 (10 min): 0.41 mg/L
- Concentration of Homolog in Effluent n = 6 (10 min): 0.85 mg/L
- Concentration of Homolog in Effluent n = 7 (10 min): 1.42 mg/L
- Concentration of Homolog in Effluent n = 8 (10 min): 1.92 mg/L
- Concentration of Homolog in Effluent n = 9 (10 min): 2.14 mg/L
- Concentration of Homolog in Effluent n = 10 (10 min): 2.06 mg/L
- Concentration of Homolog in Effluent n = 11 (10 min): 1.80 mg/L
- Concentration of Homolog in Effluent n = 12 (10 min): 1.26 mg/L
- Concentration of Homolog in Effluent n = 13 (10 min): 0.84 mg/L
- Concentration of Homolog in Effluent n = 14 (10 min): 0.49 mg/L
- Concentration of Homolog in Effluent n = 15 (10 min): 0.27 mg/L
- Concentration of Homolog in Effluent n = 16 (10 min): 0.12 mg/L
- Concentration of Homolog in Effluent n = 17 (10 min): 0.08 mg/L
- Cumul. (cumulative release in effluent) (10 min): 1.44 mg
- Concentration of Homolog in Effluent Total (20 min): 28.13 mg/L
- Concentration of Homolog in Effluent n = 3 (20 min): 0.07 mg/L
- Concentration of Homolog in Effluent n = 4 (20 min): 0.28 mg/L
- Concentration of Homolog in Effluent n = 5 (20 min): 0.78 mg/L
- Concentration of Homolog in Effluent n = 6 (20 min): 1.73 mg/L
- Concentration of Homolog in Effluent n = 7 (20 min): 2.91 mg/L
- Concentration of Homolog in Effluent n = 8 (20 min): 3.90 mg/L
- Concentration of Homolog in Effluent n = 9 (20 min): 4.38 mg/L
- Concentration of Homolog in Effluent n = 10 (20 min): 4.18 mg/L
- Concentration of Homolog in Effluent n = 11 (20 min): 3.58 mg/L
- Concentration of Homolog in Effluent n = 12 (20 min): 2.65 mg/L
- Concentration of Homolog in Effluent n = 13 (20 min): 1.73 mg/L
- Concentration of Homolog in Effluent n = 14 (20 min): 1.03 mg/L
- Concentration of Homolog in Effluent n = 15 (20 min): 0.55 mg/L
- Concentration of Homolog in Effluent n = 16 (20 min): 0.25 mg/L
- Concentration of Homolog in Effluent n = 17 (20 min): 0.08 mg/L
- Cumul. (cumulative release in effluent) (20 min): 8.00 mg
- Concentration of Homolog in Effluent Total (30 min): 34.97 mg/L
- Concentration of Homolog in Effluent n = 3 (30 min): 0.08 mg/L
- Concentration of Homolog in Effluent n = 4 (30 min): 0.35 mg/L
- Concentration of Homolog in Effluent n = 5 (30 min): 0.98 mg/L
- Concentration of Homolog in Effluent n = 6 (30 min): 2.10 mg/L
- Concentration of Homolog in Effluent n = 7 (30 min): 3.61 mg/L
- Concentration of Homolog in Effluent n = 8 (30 min): 4.89 mg/L
- Concentration of Homolog in Effluent n = 9 (30 min): 5.47 mg/L
- Concentration of Homolog in Effluent n = 10 (30 min): 5.28 mg/L
- Concentration of Homolog in Effluent n = 11 (30 min): 4.52 mg/L
- Concentration of Homolog in Effluent n = 12 (30 min): 3.29 mg/L
- Concentration of Homolog in Effluent n = 13 (30 min): 2.13 mg/L
- Concentration of Homolog in Effluent n = 14 (30 min): 1.27 mg/L
- Concentration of Homolog in Effluent n = 15 (30 min): 0.63 mg/L
- Concentration of Homolog in Effluent n = 16 (30 min): 0.28 mg/L
- Concentration of Homolog in Effluent n = 17 (30 min): 0.09 mg/L
- Cumul. (cumulative release in effluent) (30 min): 15.52 mg
- Concentration of Homolog in Effluent Total (40 min): 37.37 mg/L
- Concentration of Homolog in Effluent n = 3 (40 min): 0.09 mg/L
- Concentration of Homolog in Effluent n = 4 (40 min): 0.40 mg/L
- Concentration of Homolog in Effluent n = 5 (40 min): 1.10 mg/L
- Concentration of Homolog in Effluent n = 6 (40 min): 2.27 mg/L
- Concentration of Homolog in Effluent n = 7 (40 min): 3.86 mg/L
- Concentration of Homolog in Effluent n = 8 (40 min): 5.23 mg/L
- Concentration of Homolog in Effluent n = 9 (40 min): 5.81 mg/L
- Concentration of Homolog in Effluent n = 10 (40 min): 5.66 mg/L
- Concentration of Homolog in Effluent n = 11 (40 min): 4.80 mg/L
- Concentration of Homolog in Effluent n = 12 (40 min): 3.47 mg/L
- Concentration of Homolog in Effluent n = 13 (40 min): 2.31 mg/L
- Concentration of Homolog in Effluent n = 14 (40 min): 1.35 mg/L
- Concentration of Homolog in Effluent n = 15 (40 min): 0.67 mg/L
- Concentration of Homolog in Effluent n = 16 (40 min): 0.25 mg/L
- Concentration of Homolog in Effluent n = 17 (40 min): 0.10 mg/L
- Cumul. (cumulative release in effluent) (40 min): 23.20 mg
- Concentration of Homolog in Effluent Total (50 min): 36.42 mg/L
- Concentration of Homolog in Effluent n = 3 (50 min): 0.11 mg/L
- Concentration of Homolog in Effluent n = 4 (50 min): 0.40 mg/L
- Concentration of Homolog in Effluent n = 5 (50 min): 1.05 mg/L
- Concentration of Homolog in Effluent n = 6 (50 min): 2.18 mg/L
- Concentration of Homolog in Effluent n = 7 (50 min): 3.76 mg/L
- Concentration of Homolog in Effluent n = 8 (50 min): 5.07 mg/L
- Concentration of Homolog in Effluent n = 9 (50 min): 5.67 mg/L
- Concentration of Homolog in Effluent n = 10 (50 min): 5.51 mg/L
- Concentration of Homolog in Effluent n = 11 (50 min): 4.71 mg/L
- Concentration of Homolog in Effluent n = 12 (50 min): 3.42 mg/L
- Concentration of Homolog in Effluent n = 13 (50 min): 2.23 mg/L
- Concentration of Homolog in Effluent n = 14 (50 min): 1.28 mg/L
- Concentration of Homolog in Effluent n = 15 (50 min): 0.67 mg/L
- Concentration of Homolog in Effluent n = 16 (50 min): 0.27 mg/L
- Concentration of Homolog in Effluent n = 17 (50 min): 0.09 mg/L
- Cumul. (cumulative release in effluent) (50 min): 30.53 mg
- Concentration of Homolog in Effluent Total (60 min): 34.04 mg/L
- Concentration of Homolog in Effluent n = 3 (60 min): 0.07 mg/L
- Concentration of Homolog in Effluent n = 4 (60 min): 0.37 mg/L
- Concentration of Homolog in Effluent n = 5 (60 min): 0.99 mg/L
- Concentration of Homolog in Effluent n = 6 (60 min): 2.07 mg/L
- Concentration of Homolog in Effluent n = 7 (60 min): 3.55 mg/L
- Concentration of Homolog in Effluent n = 8 (60 min): 4.76 mg/L
- Concentration of Homolog in Effluent n = 9 (60 min): 5.36 mg/L
- Concentration of Homolog in Effluent n = 10 (60 min): 5.13 mg/L
- Concentration of Homolog in Effluent n = 11 (60 min): 4.41 mg/L
- Concentration of Homolog in Effluent n = 12 (60 min): 3.17 mg/L
- Concentration of Homolog in Effluent n = 13 (60 min): 2.09 mg/L
- Concentration of Homolog in Effluent n = 14 (60 min): 1.25 mg/L
- Concentration of Homolog in Effluent n = 15 (60 min): 0.56 mg/L
- Concentration of Homolog in Effluent n = 16 (60 min): 0.26 mg/L
- Concentration of Homolog in Effluent n = 17 (60 min): 0.00 mg/L
- Cumul. (cumulative release in effluent) (60 min): 63.41 mg
Structure (SMILES): CCCCNc1ccc(C(=O)OCCOCCOCCOCCOCCOCCOCCOCCOCCOC)cc1 [BENZ, benzonatate]
